The values that follow come from patent US12187758B2 (ROME Therapeutics, Inc., priority 2022, dated 2025).

What all share (format): cell-based
Assay [1] relates to THP1-Dual KO-TREX1 cells. Nature of the assay: THP1 TREX1 KO inhibition assay (type 1 interferon response). The following applies: Homo sapiens, 144 h, type 1 interferon (QUANTI-LUC), 1 μM 5-aza-2′-deoxycytidine, six days. The procedure: Exemplary compounds were tested for their ability to alter the type 1 interferon response in THP1 Dual TREX1 KG cells treated with 5-aza-2′-deoxycytidine. Assay procedures and results are described below.
THP1 Dual TREX1 KG cells were purchased from Invivogen. The THP1-Dual™ KO-TREX1 cells were cultured in RPMI 1640, 10% heat-inactivated fetal bovine serum, 25 mM HEPES, 10 μg/mL blasticidin, and 100 μg/mL zeocin. THP1-Dual™ KO-TREX1 cells were treated with a dose titration of a test compound alone or in the presence of 1 μM 5-aza-2′-deoxycytidine (Sigma-Aldrich, cat #189825). Type 1 Interferon and cell viability were assessed after six days of treatment.
Stock solution of the test compound was prepared in DMSO followed by a three-fold dilution in DMSO. Additional 50× dilution was prepared in cell culture media for each dilution. 10 μL of diluted test compound was then added to a 96-well plate.
THP1-Dual™ KO-TREX1 cells were treated with either 1×PBS or 1 μM 5-aza-2′-deoxycytidine. […] of the THP1-Dual™ KO-TREX1 cells from either treatment were added to each well of the 96-well plate containing the test compound titration at 50,000 cells/well. Cells were incubated at 37° C., 5% CO2 in a humidified incubator for six days. Cells treated with 1 μM 5-aza-2′-deoxycytidine were added at the same density as above and incubated at 37° C., 5% CO2 in a humidified incubator for six days. On day six, 25 μL of cell supernatant was transferred to a 96-well white-walled plate, followed by addition to each well of 50 μL of QUANTI-LUC solution containing stabilizer. Luminescence was detected on a plate reader according to the manufacturer's instructions.
The remaining cells were assessed for cell viability by adding 25 μL of CellTiter-Glo (Promega, G9683) solution to each well, and being placed on a shaker for 10 minutes at room temperature. Luminescence was detected on a plate reader, according to the manufacturer's instructions.
In the tables “A” represents values≤0.050 μM; “B” represents values from >0.050 μM to ≤0.100 μM; “C” represents values from >0.100 μM to ≤0.250 μM; “D” represents values from >0.250 μM to ≤1 μM; “E” represents values>1 μM; and “NT”=not tested: […]

For assay [2], the system named is SDH-A (succinate dehydrogenase-A). Nature of the assay: Mitochondria toxicity assay with PC3 cells, in-cell ELISA SDH-A. The following applies: 5 days treatment. The procedure: (§1) Exemplary compounds were tested for inhibition of expression of mitochondria DNA encoded proteins COX-1 […]. SDH-A (succinate dehydrogenase-A) is a control mitochondria protein encoded by nuclear DNA. Reduction in COX-1 expression indicates off target inhibition of mitochondria DNA synthesis which leads to mitochondrial toxicity. Assay procedures and results are described below.
(§2) PC3 cells were purchased from ATCC and cultured in F-12 Kaighn's modified medium (Hyclone), 10% heat-inactivated fetal bovine serum (Invitrogen), 1% Penicillin-Streptomycin (Invitrogen). PC3 cells were treated with a dose titration of a test compound on 96 well plates for 5 days at 37° C., 5% CO2 in a humidified incubator. The treatment plates are duplicated, one for in-cell ELISA for mitochondria proteins and one for cytotoxicity.
(§3) In-cell ELISA was performed to measure mitochondrial proteins using MitoBiogenesis In-Cell ELISA kit (Abcam) per manufacturer's instruction. The medium was aspirated from the compound treated cells, 100 μl per well of 4% paraformaldehyde (Solarbio) was added and cells were incubated at room temperature for 20 minutes. The cells were washed three times with PBS. 100 μl of 0.5% acetic acid was added per cell, and the cells were incubate at room temperature for 5 minutes. Cells were washed once with PBS. 100 μl per well of Permeabilization Buffer was added, and the cells incubate at room temperature for 30 minutes. The permeabilization buffer was removed and 200 μl per well 2× Blocking Buffer was added and the cells were incubated at room temperature for 2 hours. After removing the Blocking Buffer 100 μl per well of primary antibody to SDH-A or COX-1 was added, and the cells were incubated at 4° C. overnight. The primary antibody solution was removed and cells were washed 3 times with the Wash Buffer. 100 μl per well of AP- and HRP-labelled secondary antibodies was added, and the cells were incubated at room temperature for 1 hour. The cells were then washed 4 times with the Wash Buffer. For SDH-A detection, 100 μl per well AP Development Solution was added, and the cells were incubated at room temperature for 10 minutes. Cells were then read on CLARTO star^plus microplate reader (BMG Labtech) for kinetic readings at 405 nm for 5 minutes. […] The cells were then read on CLARTO star^plus microplate reader (BMG Labtech) for kinetic readings at 600 nm for 15 minutes.
(§4) In the table “A” represents values<1.0 μM; “B” represents values from >1.0 μM to ≤10.0 μM; “C” represents values from >10.0 μM to ≤50.0 μM; “D” represents values from >50.0 μM to ≤100.0 μM; and “E” represents values>100.0 μM.

A short description of assay [3]: Mitochondria toxicity assay with PC3 cells, in-cell ELISA COX-1. The note with it: 5 days treatment. The procedure: as §1, §2, §3, §4
In general terms: An ELISA detects its analyte on a solid surface through an enzyme-linked reagent.

For assay [4], the system named is PC3 cells. Nature of the assay: Mitochondria toxicity assay with PC3 cells, cytotoxicity (Cell Titer Glo). The following applies: Homo sapiens, PC-3, 120 h, 5 days treatment. The procedure: as §2
For the cytotoxicity assay, the medium from the cell viability plate was removed, 50 μL per well of Cell Titer Glo (Promega, G9683) was added. Then the cells incubated for 30 minutes at room temperature. Luminescence was read by Envision (PerkinElmer 2105).
as §4

For `N#C[C@]1(CO)O[C@@H](n2cnc3c(N)nc(F)nc32)C[C@@H]1O` [Compound 26, (2R,3S,5R)-5-(6-amino-2-fluoro-9H-purin-9-yl)-3-hydroxy-2-(hydroxymethyl) tetrahydrofuran-2-carbonitrile], the IC50 in assay [1] is more than 1 µM; in assay [2], more than 100 µM; in assay [3], 50 to 100 µM; in assay [4], more than 100 µM.
`C#C[C@]1(CO)O[C@@H](n2cnc3c(N)ncnc32)C[C@@H]1O` [Compound 27, (2R,3S,5R)-5-(6-amino-9H-purin-9-yl)-2-ethynyl-2-(hydroxymethyl)tetrahydrofuran-3-ol]: the IC50 in assay [1] was more than 1 µM; in assay [2], more than 100 µM; in assay [3] it was more than 100 µM; in assay [4] it was more than 100 µM.
For `C#C[C@]1(CO)O[C@@H](n2ccc(N)nc2=O)[C@@H](F)[C@@H]1O` [Compound 35, 4-amino-1-((2R,3S,4R,5R)-5-ethynyl-3-fluoro-4-hydroxy-5-(hydroxymethyl)tetrahydrofuran-2-yl)pyrimidin-2(1H)-one], the IC50 is 0.25 to 1 µM in assay [1], more than 100 µM in assay [2], less than 1 µM in assay [3] and less than 1 µM in assay [4].
Regarding `C#C[C@]1(CO)O[C@@H](c2ccc3c(N)ncnn23)C[C@@H]1O` [Compound 37, (2R,3S,5R)-5-(4-aminopyrrolo[2,1-f][1,2,4]triazin-7-yl)-2-ethyny1-2-(hydroxymethyl)tetrahydro-furan-3-ol], the IC50 in assay [1] is more than 1 µM; in assay [2] it was 1 to 10 µM; in assay [3] it was 1 to 10 µM; in assay [4], 10 to 50 µM.
Regarding `C#C[C@]1(CO)O[C@@H](n2cc(C)c(=O)[nH]c2=O)C[C@@H]1O` [Compound 38, 1-((2R,4S,5R)-5-ethynyl-4-hydroxy-5-(hydroxymethyl)tetrahydrofuran-2-yl)-5-methylpyrimidine-2,4(1H,3H)-dione], the IC50 in assay [1] is more than 1 µM; in assay [2] it was more than 100 µM; in assay [3] it was more than 100 µM; in assay [4], more than 100 µM.
On to `C#C[C@]1(CO)O[C@@H](n2cc(C)c(=O)[nH]c2=O)[C@@H](F)[C@@H]1O` [Compound 39, 1-((2R,3S,4R,5R)-5-ethynyl-3-fluoro-4-hydroxy-5-(hydroxymethyl)tetrahydrofuran-2-yl)-5-methylpyrimidine-2,4(1H,3H)-dione], for which the IC50 in assay [1] is more than 1 µM; in assay [2] it was more than 100 µM; in assay [3], more than 100 µM; in assay [4], more than 100 µM.
With `C#C[C@]1(CO)O[C@@H](n2cnc3c(N)nc(F)nc32)[C@@H](F)[C@@H]1O` [Compound 42, (2R,3R,4S,5R)-5-(6-amino-2-fluoro-9H-purin-9-yl)-2-ethynyl-4-fluoro-2-(hydroxymethyl)tetrahydro-furan-3-ol], the IC50 is more than 1 µM in assay [1], 10 to 50 µM in assay [2], 10 to 50 µM in assay [3] and 50 to 100 µM in assay [4].
For the molecule `C=C[C@]1(CO)O[C@@H](n2ccc(N)nc2=O)C[C@@H]1O` [Compound 43, 4-amino-1-((2R,4S,5R)-4-hydroxy-5-(hydroxymethyl)-5-vinyltetrahydrofuran-2-yl)pyrimidin-2(1H)-one], the IC50 is more than 1 µM in assay [1], 1 to 10 µM in assay [2], 1 to 10 µM in assay [3] and more than 100 µM in assay [4].
On to `Nc1ccn([C@H]2C[C@H](O)[C@](CO)(CF)O2)c(=O)n1` [Compound 45, 4-amino-1-((2R,4S,5R)-5-(fluoromethyl)-4-hydroxy-5-(hydroxymethyl)tetrahydro-furan-2-yl)pyrimidin-2(1H)-one], for which the IC50 is more than 1 µM in assay [1], less than 1 µM in assay [2], less than 1 µM in assay [3] and 1 to 10 µM in assay [4].
Regarding `Nc1nc2c(ncn2[C@H]2C[C@H](O)[C@](CO)(CF)O2)c(=O)[nH]1` [Compound 46, 2-amino-9-((2R,4S,5R)-5-(fluoromethyl)-4-hydroxy-5-(hydroxymethyl)tetrahydro-furan-2-yl)-1,9-dihydro-6H-purin-6-one], the IC50 is more than 1 µM in assay [1], 1 to 10 µM in assay [2], 1 to 10 µM in assay [3] and 1 to 10 µM in assay [4].
Turning to `C=C[C@]1(CO)O[C@@H](n2ccc(N)nc2=O)[C@@H](F)[C@@H]1O` [Compound 47, 4-amino-1-((2R,3S,4R,5R)-3-fluoro-4-hydroxy-5-(hydroxymethyl)-5-vinyltetrahydrofuran-2-yl)pyrimidin-2(1H)-one], the IC50 is more than 1 µM in assay [1], 1 to 10 µM in assay [2], 1 to 10 µM in assay [3] and 1 to 10 µM in assay [4].
In the case of `[N-]=[N+]=N[C@]1(CO)O[C@@H](n2ccc(N)nc2=O)[C@@H](F)[C@@H]1O` [Compound 50, 4-amino-1-((2R,3S,4R,5R)-5-azido-3-fluoro-4-hydroxy-5-(hydroxymethyl)tetrahydrofuran-2-yl)pyrimidin-2(1H)-one], the IC50 in assay [1] is 0.25 to 1 µM; in assay [2], less than 1 µM; in assay [3] it was less than 1 µM; in assay [4], less than 1 µM.
With `CC[C@]1(COC(=O)C(C)C)O[C@@H](n2ccc(N)nc2=O)C[C@@H]1OC(=O)C(C)C` [Compound 52, [(2R,3S,5R)-5-(4-amino-2-oxopyrimidin-1-yl)-2-ethyl-3-[(2-methylpropanoyl)oxy]oxolan-2-yl] methyl 2-methylpropanoate], the 50% inhibitory concentration (IC50) is more than 1 µM in assay [1], more than 100 µM in assay [2], more than 100 µM in assay [3] and more than 100 µM in assay [4].
With `C=C[C@]1(COC(=O)C(C)C)O[C@@H](n2ccc(N)nc2=O)C[C@@H]1OC(=O)C(C)C` [Compound 53, [(2R,3S,5R)-5-(4-amino-2-oxopyrimidin-1-yl)-2-ethenyl-3-[(2-methylpropanoyl)oxy]oxolan-2-yl] methyl 2-methylpropanoate], the IC50 is more than 1 µM in assay [1], more than 100 µM in assay [2], more than 100 µM in assay [3] and more than 100 µM in assay [4].
On to `CC(C)[C@]1(CO)O[C@@H](n2ccc(N)nc2=O)C[C@@H]1O` [Compound 55, 4-amino-1-[(2R,4S,5R)-4-hydroxy-5-(hydroxymethyl)-5-isopropyloxolan-2-yl] pyrimidin-2-one], for which the concentration for half-maximal inhibition (IC50) in assay [1] was more than 1 µM; in assay [2], more than 100 µM; in assay [3], more than 100 µM; in assay [4], more than 100 µM.
Turning to `C=CCC1(CO)O[C@@H](n2ccc(N)nc2=O)C[C@@H]1O` (stereo partly drawn) [Compound 56, 1-((2R,4S)-5-allyl-4-hydroxy-5-(hydroxymethyl)tetrahydrofuran-2-yl)-4-aminopyrimidin-2(1H)-one], the IC50 in assay [1] is more than 1 µM; in assay [2] it was more than 100 µM; in assay [3] it was more than 100 µM; in assay [4] it was more than 100 µM.

In general, IC50 refers to the midpoint of a concentration-inhibition curve.
